Experimental data as given in paper PMC12527977, “Discovery of a novel tetrapeptide as glucose homeostasis modulator with bifunctionalities of targeting DPP‐IV and microbiota” (iMeta, 2025).
Where two headings read alike, the source gives them in different places. Where a SMILES comes first, the peptide text is derived from it.

How the values were obtained:
[1] = system: faeces-derived bacterial community; test: in vitro; format: in vitro ADME
Description: (§1) The levels of VAMP at different time points were quantified by targeted metabolomics.

in vitro = in vitro ADME; conditions: cells or culture medium, VAMP (%) remaining
Description: as §1

[2] = system: porcine pepsase and trypsase; test: Simulated digestive stability of peptides (pepsase then trypsase); format: in vitro ADME; conditions: in words; 5.0 mg/mL peptide, pepsase 5000 U/mL pH 3.0 37 °C 2 h, then trypsase 100 U/mL pH 7.0 37 °C 2 h, LC-MS
Procedure: The in vitro digestibility of the peptides was determined according to the method described by Ohanenye et al. with some modifications. Briefly, 5.0 mg/mL peptides were mixed with 5000 U/mL porcine pepsase (pH 3.0). The mixture was incubated with continuous shaking in a water bath at 37 ℃ for 2 h. Then, the mixture was adjusted to pH 7.0, and a final concentration of 100 U/mL trypsase was added, followed by continuous shaking at 37 ℃ for another 2 h. After digestion, the enzyme was inactivated, and the mixture was incubated in a water bath (100 ℃) for 20 min. Subsequently, the mixture was centrifuged at 6000 rpm for 20 min, after which the supernatants were collected for further analysis. The concentrations of peptides in the digestions and TPH were determined via AB SCIEX QTrap 6600+ (AB Sciex, Framingham, Massachusetts).

[3] = Blood pharmacokinetics of VAMP, 10 mg/kg i.v. or p.o.; format: in vivo; conditions: mouse, po
Procedure: FIGURE 2 VAMP inhibits intestinal dipeptidyl peptidase IV (DPP‐IV) and increases the abundance of A. muciniphila. (A) The experimental scheme for (B–O) is shown, n = 6 mice/group. HFD‐fed mice were treated with PBS (vehicle group) or VAMP (50 mg/kg, VAMP group) for 8 weeks by oral gavage. (B) The body weight change, (C) FBG level, (D) intestinal active GLP‐1 levels, (E) plasma active GLP‐1 levels, (F) OGTT curve, (G) AUC of the OGTT, and (H) HOMA‐IR index were evaluated. (I) Intestinal permeability was measured by plasma fluorescence intensity after gavage with FITC‐dextran 4000. (J) The plasma levels of LPS, (K) TNF‐α, and (L) IL‐1β were determined. (M) Carnoy‐fixed colonic tissue sections were stained with Alcian blue/periodic acid‐Schiff. Scale bars, 100 µm. […] (O) The relative expression of Tjp1, Ocln, Cldn1, Cldn3, Cldn4, Cldn5, and Muc2 mRNAs in colonic tissue was determined. (P) The blood pharmacokinetics of 10 mg/kg VAMP administered by injection (i.v.) or gavage (p.o.) over time were evaluated. (Q) The tissue distribution of VAMP at the time of peak plasma concentration (30 min) after the administration of 10 mg/kg VAMP by gavage was determined (n = 4). […] (U) The change in bacterial abundance at the species level after VAMP treatment was determined via random forest analysis. […]
(§2) We first determined the VAMP metabolic kinetics in model mice.

[4] = Tissue distribution of VAMP 30 min after 10 mg/kg by gavage; format: in vivo, mouse; conditions: for Tissue distribution, relative proportion in Heart / Tissue distribution, relative proportion in Intestinal content / Tissue distribution, relative proportion in Intestinal tissue / Tissue distribution, relative proportion in Kidney / Tissue distribution, relative proportion in Liver / Tissue distribution, relative proportion in Lung / Tissue distribution, relative proportion in Spleen: 10 mg/kg by gavage, 30 min
Procedure: FIGURE 2 VAMP inhibits intestinal dipeptidyl peptidase IV (DPP‐IV) and increases the abundance of A. muciniphila. (A) The experimental scheme for (B–O) is shown, n = 6 mice/group. HFD‐fed mice were treated with PBS (vehicle group) or VAMP (50 mg/kg, VAMP group) for 8 weeks by oral gavage. (B) The body weight change, (C) FBG level, (D) intestinal active GLP‐1 levels, (E) plasma active GLP‐1 levels, (F) OGTT curve, (G) AUC of the OGTT, and (H) HOMA‐IR index were evaluated. (I) Intestinal permeability was measured by plasma fluorescence intensity after gavage with FITC‐dextran 4000. (J) The plasma levels of LPS, (K) TNF‐α, and (L) IL‐1β were determined. (M) Carnoy‐fixed colonic tissue sections were stained with Alcian blue/periodic acid‐Schiff. Scale bars, 100 µm. (N) Blinded colonic mucus layer measurements were made from Alcian blue‐stained sections. (O) The relative expression of Tjp1, Ocln, Cldn1, Cldn3, Cldn4, Cldn5, and Muc2 mRNAs in colonic tissue was determined. (P) The blood pharmacokinetics of 10 mg/kg VAMP administered by injection (i.v.) or gavage (p.o.) over time were evaluated. (Q) The tissue distribution of VAMP at the time of peak plasma concentration (30 min) after the administration of 10 mg/kg VAMP by gavage was determined (n = 4). (R) PCoA was performed using the Bray‒Curtis distance. (S, T) Taxonomic cladograms were generated by LEfSe analysis. The blue color indicates enriched taxa in the VAMP group, and the red color indicates enriched taxa in the vehicle group. The size of each circle is proportional to the taxon's abundance. (U) The change in bacterial abundance at the species level after VAMP treatment was determined via random forest analysis. (V) Growth curve of A. muciniphila cultured in BHI media supplemented with VAMP (50 μM) or PBS (Vehicle) and then grown anaerobically. (W−Y) RNA‐seq analysis of the A. muciniphila cultured in BHI media supplemented with VAMP (50 μM) or PBS control (Vehicle) was performed (n = 3). (W) PCA of transcriptome. (X) Biofunction changes of A. muciniphila by VAMP treatment via KEGG enrichment analysis. (Y) Volcano plot of transcriptome sequencing of Vehicle and VAMP groups. (Z) Levels of peptidoglycan by VAMP treatment. *p < 0.05 and **p < 0.01 versus the vehicle group. AUC, area under the curve; BHI, brain heart infusion; FBG, fasting blood glucose; GLP‐1, glucagon‐like peptide‐1; HOMA‐IR, homeostatic model assessment of insulin resistance; IL‐1β, interleukin‐1β; LEfSe, linear discriminant analysis effect size; LPS, lipopolysaccharide; OGTT, oral glucose tolerance test; PCoA, principal coordinate analysis; TNF‐α, tumor necrosis factor α.
as §2

DPP-IV [5] = biological target: T1, DPP-IV (Homo sapiens, UniProt P27487); test: DPP-IV inhibition in iPSC-induced intestinal organoids (supernatant, DPP-IV-Glo kit); format: cell-based; set-up: endogenous in cells; host or cells: iPSC-induced intestinal organoids; conditions: Fig 1R, 24 h, read-out: Inhibitory effect on DPP-IV; for inhibition at 100 µg/mL: VAMP 100 μg/mL; for inhibition at 200 µg/mL: VAMP 200 μg/mL; for inhibition at 500 µg/mL: VAMP 500 μg/mL
Description: iPSC-induced intestinal organoids were established according to the manufacturer’s instructions (STEMdiff^TM Intestinal Organoid kit).
Target sequence in this assay (P27487 whole entry): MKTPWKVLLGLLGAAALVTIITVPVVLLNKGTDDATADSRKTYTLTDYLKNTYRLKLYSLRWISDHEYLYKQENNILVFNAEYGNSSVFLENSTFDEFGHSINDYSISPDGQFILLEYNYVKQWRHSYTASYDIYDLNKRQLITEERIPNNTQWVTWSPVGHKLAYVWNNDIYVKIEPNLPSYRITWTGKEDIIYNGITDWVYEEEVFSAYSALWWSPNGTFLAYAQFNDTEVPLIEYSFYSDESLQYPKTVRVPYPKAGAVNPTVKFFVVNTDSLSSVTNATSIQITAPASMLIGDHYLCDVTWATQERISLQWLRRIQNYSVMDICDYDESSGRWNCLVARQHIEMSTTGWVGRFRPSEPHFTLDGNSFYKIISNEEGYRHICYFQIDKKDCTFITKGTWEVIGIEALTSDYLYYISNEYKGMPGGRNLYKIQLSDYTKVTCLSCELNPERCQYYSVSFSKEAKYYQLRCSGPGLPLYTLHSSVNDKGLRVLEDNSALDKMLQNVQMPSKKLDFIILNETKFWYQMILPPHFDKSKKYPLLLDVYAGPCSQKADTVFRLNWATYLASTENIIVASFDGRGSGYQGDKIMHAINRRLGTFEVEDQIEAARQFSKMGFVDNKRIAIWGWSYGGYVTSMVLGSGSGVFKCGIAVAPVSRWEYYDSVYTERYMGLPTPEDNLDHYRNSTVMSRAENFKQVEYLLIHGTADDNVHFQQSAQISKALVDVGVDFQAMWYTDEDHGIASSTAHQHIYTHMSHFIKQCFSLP

DPP-IV [6] = biological target: T1, DPP-IV; test: Surface plasmon resonance (Biacore 8K, CM5 chip, 25 °C); format: binding; set-up: purchased QiZheng Biotech (Shanghai, China) IBDPP0901; conditions: SPR, Table S3; read-out: KD values

With `CSCC[C@H](NC(=O)[C@H](C)NC(=O)[C@@H](N)C(C)C)C(=O)N1CCC[C@H]1C(=O)O` [VAMP] (H-VAMP-OH) the “Degradation of VAMP in faeces-derived microbial community culture” value [1] was “degraded by gut microbiota”, the remaining at 3 h, 100 μM (in vitro; 3 h) was 98.5% and the remaining at 6 h, 100 μM (in vitro; 6 h) was 84.6%. The remaining at 12 h, 100 μM (in vitro; 12 h) was 51.7%, the remaining at 36 h, 100 μM (in vitro; 36 h) was 2.1% and the remaining at 48 h, 100 μM (in vitro; 48 h) was 0%. The “Resistance to simulated gastric pepsase and trypsase digestion” value [2] was “readily resistant”, the bioavailability ([3]; blood, mice, 10 mg/kg p.o. vs i.v., printed in picture Fig 2P) was 10.5% and the Tmax ([3]; plasma, 10 mg/kg by gavage, read-out: Time of peak plasma concentration (converted)) was 30 min. For the same compound, the “Tissue distribution, relative proportion in Heart” value ([4]; animal 1) was 0.7129%, the “Tissue distribution, relative proportion in Intestinal content” value ([4]; animal 1) was 72.8435% and the “Tissue distribution, relative proportion in Intestinal tissue” value ([4]; animal 1) was 17.3859%. For the same compound, the “Tissue distribution, relative proportion in Kidney” value ([4]; animal 1) was 1.873%, the “Tissue distribution, relative proportion in Liver” value ([4]; animal 1) was 2.36% and the “Tissue distribution, relative proportion in Lung” value ([4]; animal 1) was 1.2931%. The “Tissue distribution, relative proportion in Spleen” value ([4]; animal 1) was 3.531%, the “Tissue distribution, relative proportion in Heart” value ([4]; animal 2) was 0.3824% and the “Tissue distribution, relative proportion in Intestinal content” value ([4]; animal 2) was 73.0882%. The “Tissue distribution, relative proportion in Intestinal tissue” value ([4]; animal 2) was 19.9706%, the “Tissue distribution, relative proportion in Kidney” value ([4]; animal 2) was 1.279% and the “Tissue distribution, relative proportion in Liver” value ([4]; animal 2) was 2.103%. For the same compound, the “Tissue distribution, relative proportion in Lung” value ([4]; animal 2) was 0.9118%, the “Tissue distribution, relative proportion in Spleen” value ([4]; animal 2) was 2.265% and the “Tissue distribution, relative proportion in Heart” value ([4]; animal 3) was 0.4562%. The “Tissue distribution, relative proportion in Intestinal content” value ([4]; animal 3) was 74.7307%, the “Tissue distribution, relative proportion in Intestinal tissue” value ([4]; animal 3) was 19.1872% and the “Tissue distribution, relative proportion in Kidney” value ([4]; animal 3) was 0.6681%. The “Tissue distribution, relative proportion in Liver” value ([4]; animal 3) was 1.699%, the “Tissue distribution, relative proportion in Lung” value ([4]; animal 3) was 0.5703% and the “Tissue distribution, relative proportion in Spleen” value ([4]; animal 3) was 2.689%. The “Tissue distribution, relative proportion in Heart” value ([4]; animal 4) was 0.5116%, the “Tissue distribution, relative proportion in Intestinal content” value ([4]; animal 4) was 76.0476% and the “Tissue distribution, relative proportion in Intestinal tissue” value ([4]; animal 4) was 16.2858%. The “Tissue distribution, relative proportion in Kidney” value ([4]; animal 4) was 1.305%, the “Tissue distribution, relative proportion in Liver” value ([4]; animal 4) was 2.163% and the “Tissue distribution, relative proportion in Lung” value ([4]; animal 4) was 0.882%. For the same compound, the “Tissue distribution, relative proportion in Spleen” value ([4]; animal 4) was 2.805%, the “VAMP remaining in the intestinal content at the time of peak plasma concentration” value ([4]; after gavage) was 74.18% and the inhibition at 100 µg/mL (DPP-IV [5]; replicate 1) was 72.5%. It also gave an inhibition at 100 µg/mL (DPP-IV [5]; replicate 2) of 69.3%, an inhibition at 100 µg/mL (DPP-IV [5]; replicate 3) of 50.4% and an inhibition at 200 µg/mL (DPP-IV [5]; replicate 1) of 82.5%. It also gave an inhibition at 200 µg/mL (DPP-IV [5]; replicate 2) of 80.3%, an inhibition at 200 µg/mL (DPP-IV [5]; replicate 3) of 84.2% and an inhibition at 500 µg/mL (DPP-IV [5]; replicate 1) of 92.1%. The inhibition at 500 µg/mL (DPP-IV [5]; replicate 2) was 89.1%, the inhibition at 500 µg/mL (DPP-IV [5]; replicate 3) was 84.8% and the Kd (DPP-IV [6]) was 6.89 µM.
